Measured values: PMC4579270, “Identification and Characterization of an Irreversible Inhibitor of CDK2” (Chemistry & Biology, 2015)
Where two headings read alike, the source gives them in different places.

Legend:
Experiment in all cases: Dundee kinase screen re-test (standard format and 4 hour pre-incubation)
Type in all cases: biochemical
CDK9-Cyclin T1 = CDK9-Cyclin T1 (Homo sapiens, UniProt P50750); conditions: CDK9/cyclin T1, 0.5µM
Summary of the method: (§1)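 Selectivity panel of 131 protein kinases, inhibitor tested at a single concentration of 1 µM; values are % kinase activity remaining, mean of duplicates. Re-test of selected kinases used 0.5 µM in the standard format and again after a 4 hour pre-incubation with the inhibitor.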

ERK8 = biological target: T1, ERK8 (Homo sapiens, UniProt Q8TD08); conditions: ERK8, 0.5µM
T1 sequence (Q8TD08 1-544): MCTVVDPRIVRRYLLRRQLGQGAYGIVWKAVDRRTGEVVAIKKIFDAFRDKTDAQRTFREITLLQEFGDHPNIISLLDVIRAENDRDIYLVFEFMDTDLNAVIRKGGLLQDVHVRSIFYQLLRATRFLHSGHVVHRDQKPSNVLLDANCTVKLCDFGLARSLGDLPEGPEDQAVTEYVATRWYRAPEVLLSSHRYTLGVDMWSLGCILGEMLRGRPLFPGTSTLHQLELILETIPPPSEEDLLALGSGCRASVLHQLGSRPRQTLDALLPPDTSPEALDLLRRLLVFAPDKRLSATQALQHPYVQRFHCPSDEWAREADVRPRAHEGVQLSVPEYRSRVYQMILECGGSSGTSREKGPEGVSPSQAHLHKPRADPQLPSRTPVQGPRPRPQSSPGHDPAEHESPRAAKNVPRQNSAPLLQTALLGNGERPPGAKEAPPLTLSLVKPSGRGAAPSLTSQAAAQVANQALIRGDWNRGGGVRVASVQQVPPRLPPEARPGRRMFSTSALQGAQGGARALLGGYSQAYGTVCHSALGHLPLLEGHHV
Summary of the method: as §1

GSK3b = GSK3b (Homo sapiens, UniProt P49841)
Sequence of GSK3b (P49841 whole entry): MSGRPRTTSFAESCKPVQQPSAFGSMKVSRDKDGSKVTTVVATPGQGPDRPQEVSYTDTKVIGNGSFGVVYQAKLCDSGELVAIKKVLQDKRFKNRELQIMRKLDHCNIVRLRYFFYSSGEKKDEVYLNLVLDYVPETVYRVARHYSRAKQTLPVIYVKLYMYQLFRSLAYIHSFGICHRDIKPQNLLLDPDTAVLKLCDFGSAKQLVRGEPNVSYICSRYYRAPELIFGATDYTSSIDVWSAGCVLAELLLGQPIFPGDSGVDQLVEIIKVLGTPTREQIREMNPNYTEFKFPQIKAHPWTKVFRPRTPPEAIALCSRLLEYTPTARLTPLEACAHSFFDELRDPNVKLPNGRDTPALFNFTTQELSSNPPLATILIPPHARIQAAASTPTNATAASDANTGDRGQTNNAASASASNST
Summary of the method: as §1

IRR = IRR (Homo sapiens, UniProt P14616)
Sequence of IRR (P14616 27-1297): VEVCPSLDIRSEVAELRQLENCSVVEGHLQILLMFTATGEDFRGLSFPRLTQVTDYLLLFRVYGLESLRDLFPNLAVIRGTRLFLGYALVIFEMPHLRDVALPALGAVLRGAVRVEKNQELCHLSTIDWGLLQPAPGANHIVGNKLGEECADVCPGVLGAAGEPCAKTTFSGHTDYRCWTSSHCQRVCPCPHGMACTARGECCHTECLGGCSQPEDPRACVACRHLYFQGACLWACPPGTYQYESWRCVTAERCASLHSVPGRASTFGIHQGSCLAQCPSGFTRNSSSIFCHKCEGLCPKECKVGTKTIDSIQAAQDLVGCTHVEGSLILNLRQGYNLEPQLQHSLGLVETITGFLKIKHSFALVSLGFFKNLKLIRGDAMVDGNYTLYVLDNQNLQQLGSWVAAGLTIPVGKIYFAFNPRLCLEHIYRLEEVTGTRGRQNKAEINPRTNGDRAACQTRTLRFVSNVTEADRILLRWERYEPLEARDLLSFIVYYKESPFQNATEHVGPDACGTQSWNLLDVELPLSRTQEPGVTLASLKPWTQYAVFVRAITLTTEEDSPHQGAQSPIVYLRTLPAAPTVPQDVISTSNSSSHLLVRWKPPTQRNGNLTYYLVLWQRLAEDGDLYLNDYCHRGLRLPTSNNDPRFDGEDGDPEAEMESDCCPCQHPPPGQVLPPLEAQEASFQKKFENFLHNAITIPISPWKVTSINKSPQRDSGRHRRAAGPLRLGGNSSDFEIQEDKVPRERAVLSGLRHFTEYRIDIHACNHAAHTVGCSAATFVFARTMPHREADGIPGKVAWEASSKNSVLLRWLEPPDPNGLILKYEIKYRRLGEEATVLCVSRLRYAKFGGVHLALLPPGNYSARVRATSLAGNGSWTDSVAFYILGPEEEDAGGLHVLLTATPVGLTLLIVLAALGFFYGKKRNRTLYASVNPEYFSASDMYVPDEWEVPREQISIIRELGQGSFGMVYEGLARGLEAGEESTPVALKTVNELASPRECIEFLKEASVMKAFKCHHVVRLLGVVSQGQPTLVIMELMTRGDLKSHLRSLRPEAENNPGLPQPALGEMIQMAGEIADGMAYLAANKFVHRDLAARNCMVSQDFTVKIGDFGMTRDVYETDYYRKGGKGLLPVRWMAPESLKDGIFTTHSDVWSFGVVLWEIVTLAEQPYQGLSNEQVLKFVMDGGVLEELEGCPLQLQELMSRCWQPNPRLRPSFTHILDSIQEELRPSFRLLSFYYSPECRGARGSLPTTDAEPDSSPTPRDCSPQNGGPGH
Summary of the method: as §1

JAK2 = JAK2 (Homo sapiens, UniProt O60674); conditions: JAK2, 0.5µM
Summary of the method: as §1

JNK3 = JNK3 (Homo sapiens, UniProt P53779); conditions: JNK3, 0.5µM
Sequence of JNK3 (P53779 whole entry): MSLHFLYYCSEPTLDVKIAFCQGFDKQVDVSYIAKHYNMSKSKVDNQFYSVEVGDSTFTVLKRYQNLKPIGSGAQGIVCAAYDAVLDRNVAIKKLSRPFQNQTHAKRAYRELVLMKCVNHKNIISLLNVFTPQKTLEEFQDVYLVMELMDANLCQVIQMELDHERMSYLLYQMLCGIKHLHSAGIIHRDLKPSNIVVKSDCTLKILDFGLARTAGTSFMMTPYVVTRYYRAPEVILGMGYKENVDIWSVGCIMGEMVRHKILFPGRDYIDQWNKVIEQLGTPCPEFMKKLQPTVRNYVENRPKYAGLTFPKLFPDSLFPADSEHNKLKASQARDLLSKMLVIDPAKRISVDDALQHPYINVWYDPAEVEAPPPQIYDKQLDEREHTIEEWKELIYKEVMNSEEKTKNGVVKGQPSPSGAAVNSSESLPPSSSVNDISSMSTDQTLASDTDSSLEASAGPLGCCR
Summary of the method: as §1

MARK4 = biological target: T2, MARK4 (Homo sapiens, UniProt Q96L34); conditions: MARK4, 0.5µM
T2 sequence (Q96L34 1-752): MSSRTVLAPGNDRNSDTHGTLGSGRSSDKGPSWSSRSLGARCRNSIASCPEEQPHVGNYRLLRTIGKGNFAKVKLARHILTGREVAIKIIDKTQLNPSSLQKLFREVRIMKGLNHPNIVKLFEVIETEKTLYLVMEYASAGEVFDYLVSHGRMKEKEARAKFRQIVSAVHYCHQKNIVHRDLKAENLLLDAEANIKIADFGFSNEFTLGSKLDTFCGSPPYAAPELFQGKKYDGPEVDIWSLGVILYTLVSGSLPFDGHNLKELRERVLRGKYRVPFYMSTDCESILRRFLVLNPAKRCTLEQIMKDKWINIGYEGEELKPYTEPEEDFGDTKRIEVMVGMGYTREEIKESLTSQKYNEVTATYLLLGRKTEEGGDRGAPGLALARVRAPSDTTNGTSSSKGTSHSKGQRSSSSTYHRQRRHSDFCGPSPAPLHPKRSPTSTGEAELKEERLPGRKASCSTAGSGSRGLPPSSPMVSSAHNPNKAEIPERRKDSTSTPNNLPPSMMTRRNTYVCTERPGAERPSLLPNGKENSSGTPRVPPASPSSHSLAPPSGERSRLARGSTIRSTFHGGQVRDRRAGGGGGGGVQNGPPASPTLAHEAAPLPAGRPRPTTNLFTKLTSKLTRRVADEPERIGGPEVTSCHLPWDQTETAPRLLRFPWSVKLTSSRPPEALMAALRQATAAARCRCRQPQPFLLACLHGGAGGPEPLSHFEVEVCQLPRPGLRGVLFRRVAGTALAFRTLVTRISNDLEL
Summary of the method: as §1

MLK3 = MLK3 (Homo sapiens, UniProt Q16584); conditions: MLK3, 0.5µM
Sequence of MLK3 (Q16584 whole entry): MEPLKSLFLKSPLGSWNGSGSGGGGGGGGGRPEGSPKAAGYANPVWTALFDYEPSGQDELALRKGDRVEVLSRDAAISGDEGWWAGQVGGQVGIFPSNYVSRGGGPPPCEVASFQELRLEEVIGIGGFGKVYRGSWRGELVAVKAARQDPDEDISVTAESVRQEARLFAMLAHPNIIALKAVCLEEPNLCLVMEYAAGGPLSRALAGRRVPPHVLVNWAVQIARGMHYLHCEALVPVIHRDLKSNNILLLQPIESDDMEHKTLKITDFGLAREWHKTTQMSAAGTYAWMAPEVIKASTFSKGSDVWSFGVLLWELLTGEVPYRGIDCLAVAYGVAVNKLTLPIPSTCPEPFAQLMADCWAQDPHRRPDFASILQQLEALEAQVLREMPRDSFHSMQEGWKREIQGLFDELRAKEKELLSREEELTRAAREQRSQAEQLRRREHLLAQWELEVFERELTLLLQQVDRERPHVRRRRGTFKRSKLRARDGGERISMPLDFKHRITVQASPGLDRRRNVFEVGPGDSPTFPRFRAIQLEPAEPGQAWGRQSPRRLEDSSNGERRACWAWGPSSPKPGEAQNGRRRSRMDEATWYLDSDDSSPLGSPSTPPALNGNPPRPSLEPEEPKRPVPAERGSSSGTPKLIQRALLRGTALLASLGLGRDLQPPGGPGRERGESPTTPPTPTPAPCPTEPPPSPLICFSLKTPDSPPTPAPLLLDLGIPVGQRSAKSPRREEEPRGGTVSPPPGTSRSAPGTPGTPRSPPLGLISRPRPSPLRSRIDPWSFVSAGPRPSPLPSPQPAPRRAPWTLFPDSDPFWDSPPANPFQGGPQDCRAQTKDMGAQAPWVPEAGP
Summary of the method: as §1

MST4 = MST4 (Homo sapiens, UniProt Q9P289); conditions: MST4, 0.5µM
Sequence of MST4 (Q9P289 whole entry): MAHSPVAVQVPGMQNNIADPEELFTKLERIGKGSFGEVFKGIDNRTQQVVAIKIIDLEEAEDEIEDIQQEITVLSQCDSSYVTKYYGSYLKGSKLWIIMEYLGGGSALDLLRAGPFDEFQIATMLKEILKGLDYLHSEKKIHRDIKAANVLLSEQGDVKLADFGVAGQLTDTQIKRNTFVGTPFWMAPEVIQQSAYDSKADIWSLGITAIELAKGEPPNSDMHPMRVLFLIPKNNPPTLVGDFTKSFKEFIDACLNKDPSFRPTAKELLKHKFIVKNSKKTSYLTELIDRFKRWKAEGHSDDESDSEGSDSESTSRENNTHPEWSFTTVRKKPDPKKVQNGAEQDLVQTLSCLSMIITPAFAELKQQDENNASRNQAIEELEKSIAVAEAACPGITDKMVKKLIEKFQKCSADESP
Summary of the method: as §1

[1] = 4hr RT preincubation, read-out: %Remaining activity at 0.5µM NU6300 - 4hr RT preincubation
[2] = usual format, read-out: %Remaining activity at 0.5µM NU6300 - Usual assay format

Sequence of CDK9-Cyclin T1 (P50750 whole entry): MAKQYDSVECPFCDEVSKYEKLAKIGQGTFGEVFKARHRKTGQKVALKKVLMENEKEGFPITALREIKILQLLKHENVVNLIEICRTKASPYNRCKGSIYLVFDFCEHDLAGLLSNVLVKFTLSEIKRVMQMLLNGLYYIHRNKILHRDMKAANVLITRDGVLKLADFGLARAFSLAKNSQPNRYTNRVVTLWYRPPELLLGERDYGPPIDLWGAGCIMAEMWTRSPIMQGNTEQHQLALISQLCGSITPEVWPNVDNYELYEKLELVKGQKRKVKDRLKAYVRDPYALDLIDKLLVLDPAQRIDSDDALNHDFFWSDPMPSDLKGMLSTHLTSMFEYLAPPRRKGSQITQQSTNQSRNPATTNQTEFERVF
Sequence of CDK9-Cyclin T1 (O60563 whole entry partner): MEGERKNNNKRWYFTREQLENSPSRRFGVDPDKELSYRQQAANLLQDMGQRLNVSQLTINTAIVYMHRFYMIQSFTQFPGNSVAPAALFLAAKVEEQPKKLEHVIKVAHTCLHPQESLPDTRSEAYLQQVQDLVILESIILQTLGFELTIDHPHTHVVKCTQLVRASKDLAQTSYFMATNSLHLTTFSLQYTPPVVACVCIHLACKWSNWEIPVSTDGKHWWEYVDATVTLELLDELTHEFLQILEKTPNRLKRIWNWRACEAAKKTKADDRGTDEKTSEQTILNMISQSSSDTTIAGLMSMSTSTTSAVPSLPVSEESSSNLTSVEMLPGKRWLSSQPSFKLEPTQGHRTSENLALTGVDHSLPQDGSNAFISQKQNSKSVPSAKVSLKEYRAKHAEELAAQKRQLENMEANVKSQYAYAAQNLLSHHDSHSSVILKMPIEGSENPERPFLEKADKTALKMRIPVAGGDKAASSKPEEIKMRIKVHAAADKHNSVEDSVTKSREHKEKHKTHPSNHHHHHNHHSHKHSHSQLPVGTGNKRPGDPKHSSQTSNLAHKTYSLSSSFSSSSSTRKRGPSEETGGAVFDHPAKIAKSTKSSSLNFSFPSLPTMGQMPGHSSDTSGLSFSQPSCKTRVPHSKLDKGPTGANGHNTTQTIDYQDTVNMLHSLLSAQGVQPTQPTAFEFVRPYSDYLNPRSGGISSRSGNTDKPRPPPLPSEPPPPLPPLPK

**Q.** With `C=CS(=O)(=O)c1ccc(Nc2nc(OCC3CCCCC3)c3nc[nH]c3n2)cc1` [NU6300, 6-(cyclohexylmethoxy)-N-(4-(vinylsulfonyl)phenyl)-9H-purin-2-amine] as the molecule, how does the remaining activity at 0.5 µM (CDK9-Cyclin T1; [1]) read?
**A.** The remaining activity at 0.5 µM was 127%.

**Q.** What about the remaining activity at 0.5 µM (CDK9-Cyclin T1; [2]) of the same molecule?
**A.** The remaining activity at 0.5 µM was 89%.

**Q.** And the remaining activity at 0.5 µM (ERK8; [1])?
**A.** The remaining activity at 0.5 µM was 68%.

**Q.** What about the remaining activity at 0.5 µM (ERK8; [2]) of the same molecule?
**A.** Its remaining activity at 0.5 µM is 20%.

**Q.** And the remaining activity at 0.5 µM (GSK3b; [1])?
**A.** The remaining activity at 0.5 µM was 81%.

**Q.** And the remaining activity at 0.5 µM (GSK3b; [2])?
**A.** Its remaining activity at 0.5 µM is 80%.

**Q.** And the remaining activity at 0.5 µM (IRR; [1])?
**A.** Its remaining activity at 0.5 µM is 45%.

**Q.** What about the remaining activity at 0.5 µM (IRR; [2]) of the same molecule?
**A.** Its remaining activity at 0.5 µM is 73%.

**Q.** And the remaining activity at 0.5 µM (JAK2; [1])?
**A.** Its remaining activity at 0.5 µM is 7%.

**Q.** And the remaining activity at 0.5 µM (JAK2; [2])?
**A.** Its remaining activity at 0.5 µM is 9%.

**Q.** What about the remaining activity at 0.5 µM (JNK3; [1]) of the same molecule?
**A.** Its remaining activity at 0.5 µM is 98%.

**Q.** What about the remaining activity at 0.5 µM (JNK3; [2]) of the same molecule?
**A.** Its remaining activity at 0.5 µM is 53%.

**Q.** What about the remaining activity at 0.5 µM (MARK4; [1]) of the same molecule?
**A.** Its remaining activity at 0.5 µM is 52%.

**Q.** And the remaining activity at 0.5 µM (MARK4; [2])?
**A.** Its remaining activity at 0.5 µM is 47%.

**Q.** What about the remaining activity at 0.5 µM (MLK3; [1]) of the same molecule?
**A.** The remaining activity at 0.5 µM was 52%.

**Q.** And the remaining activity at 0.5 µM (MLK3; [2])?
**A.** The remaining activity at 0.5 µM was 5%.

**Q.** And the remaining activity at 0.5 µM (MST4; [1])?
**A.** The remaining activity at 0.5 µM was 94%.

**Q.** What about the remaining activity at 0.5 µM (MST4; [2]) of the same molecule?
**A.** The remaining activity at 0.5 µM was 74%.
